Assay results as given in patent publication US9856220B2 (AbbVie Deutschland GmbH & Co. KG, priority 2011, dated 2018).

How the values were obtained:
rats [1] = conditions: cited from earlier work
rats [2] = conditions: cited from earlier work; remark: listed apart in the source
rats [3] = conditions: rat, in vivo; cited from earlier work
PDE10A = PDE10A (Homo sapiens (Human), UniProt Q9Y233); test: Measurement of PDE activity (recombinant PDE, cAMP HTRF); type: biochemical; conditions: 20 nM cyclic nucleotide substrate, 60 minutes at 29 C
Chain of PDE10A (Q9Y233 whole entry, species assumed): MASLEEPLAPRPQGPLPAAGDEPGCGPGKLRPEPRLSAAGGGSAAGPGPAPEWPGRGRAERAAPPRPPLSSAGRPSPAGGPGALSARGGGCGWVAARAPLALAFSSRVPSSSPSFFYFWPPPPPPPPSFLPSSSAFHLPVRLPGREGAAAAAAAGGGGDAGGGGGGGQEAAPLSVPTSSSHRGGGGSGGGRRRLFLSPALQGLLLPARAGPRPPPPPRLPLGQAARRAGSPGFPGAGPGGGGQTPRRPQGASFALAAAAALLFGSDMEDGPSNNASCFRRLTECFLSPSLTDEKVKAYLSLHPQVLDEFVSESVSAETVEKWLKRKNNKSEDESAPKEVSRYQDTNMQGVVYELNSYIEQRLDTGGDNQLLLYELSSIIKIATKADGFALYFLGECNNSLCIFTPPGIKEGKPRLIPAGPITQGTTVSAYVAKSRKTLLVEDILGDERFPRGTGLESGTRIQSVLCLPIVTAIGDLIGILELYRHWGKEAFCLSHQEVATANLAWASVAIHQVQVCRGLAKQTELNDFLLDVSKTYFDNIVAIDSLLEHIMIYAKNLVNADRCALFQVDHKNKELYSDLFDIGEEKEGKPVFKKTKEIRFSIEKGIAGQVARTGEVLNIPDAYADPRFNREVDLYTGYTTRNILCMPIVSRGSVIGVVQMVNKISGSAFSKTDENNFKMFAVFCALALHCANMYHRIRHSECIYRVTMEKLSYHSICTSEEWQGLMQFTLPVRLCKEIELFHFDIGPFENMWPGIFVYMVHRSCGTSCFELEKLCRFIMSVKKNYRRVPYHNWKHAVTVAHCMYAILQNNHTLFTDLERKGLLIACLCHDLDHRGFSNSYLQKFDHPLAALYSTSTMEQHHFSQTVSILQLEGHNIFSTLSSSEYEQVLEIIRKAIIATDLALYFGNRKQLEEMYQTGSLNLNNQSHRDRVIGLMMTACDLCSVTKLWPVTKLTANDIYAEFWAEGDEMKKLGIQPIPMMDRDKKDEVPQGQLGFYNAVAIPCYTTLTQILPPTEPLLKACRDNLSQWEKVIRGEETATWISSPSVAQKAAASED
Method in brief: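 Recombinant human PDE10A in 20 mM Tris-HCl pH 7.5, 10 mM MgCl2, 0.1% BSA with 20 nM cyclic nucleotide substrate; reaction 60 min at 29 C after compound preincubation with enzyme. Residual cAMP detected by HTRF (cAMP-d2/anti-cAMP cryptate); IC50 from inhibitor concentration versus PDE activity.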

[4] = Determination of the microsomal half-life / microsomal clearance, rat liver microsomes; type: in vitro ADME; conditions: 0.5 μM test substance, 0.25 mg of microsomal protein/ml, pH 7.4, 37° C.
[5] = Determination of the microsomal half-life / microsomal clearance, human liver microsomes; type: in vitro ADME; conditions: 0.5 μM test substance, 0.25 mg of microsomal protein/ml, pH 7.4, 37° C.

SMILES	catalepsy on its own (rats [1]; compound alone)	cataleptic effect of the D2 receptor antagonist haloperidol (rats [1]; with haloperidol)	hyperactivity induced by PCP (rats [2])	reduction of amphetamine-induced hyperactivity (rats [3])	IC50 (PDE10A) [nM]	Rat mCl [4]	Human mCl [5]
COc1ccc(Cc2nccc3cc(OC)c(OC)cc23)cc1OC [Papaverine, papaverine]	did not cause catalepsy on its own	potentiated the cataleptic effect	reduced hyperactivity	insignificant			
CCn1cc(C(=O)NC2CCc3ccccc32)c2cc(OC)c(OC)cc2c1=O (stereo not shown) [Example 40, 2-Ethyl-6,7-dimethoxy-1-oxo-1,2-dihydro-isoquinoline-4-carboxylic acid indan-1-ylamide]					100 to 200	++ (<100 μl min^−1 mg^−1)	++ (<100 μl min^−1 mg^−1)
CCn1cc(C(=O)NC2CCc3sccc32)c2cc(OC)c(OC)cc2c1=O (stereo not shown) [Example 172, N-(5,6-Dihydro-4H-cyclopenta[b]thiophen-4-yl)-2-ethyl-6,7-dimethoxy-1-oxo-1,2-dihydroisoquinoline-4-carboxamide]					100 to 200	++ (<100 μl min^−1 mg^−1)	++ (<100 μl min^−1 mg^−1)
CCC(CC)n1cc(C(=O)NCc2ccc(C)o2)c2cc(OC)c(OC)cc2c1=O [Example 251, 6,7-Dimethoxy-N-((5-methylfuran-2-yl)methyl)-1-oxo-2-(pentan-3-yl)-1,2-dihydroisoquinoline-4-carboxamide]					100 to 200	∘ (>220 μl min^−1 mg^−1)	+ (100-220 μl min^−1 mg^−1)
CCC(CC)n1cc(C(=O)NCc2ncc(C)s2)c2cc(OC)c(OC)cc2c1=O [Example 239, 6,7-Dimethoxy-N-((5-methylthiazol-2-yl)methyl)-1-oxo-2-(pentan-3-yl)-1,2-dihydroisoquinoline-4-carboxamide]					100 to 200	+ (100-220 μl min^−1 mg^−1)	+ (100-220 μl min^−1 mg^−1)
CCC(CC)n1cc(C(=O)NCc2cc(C)on2)c2cc(OC)c(OC)cc2c1=O [Example 244, 6,7-Dimethoxy-N-((5-methylisoxazol-3-yl)methyl)-1-oxo-2-(pentan-3-yl)-1,2-dihydroisoquinoline-4-carboxamide]					200 to 500	++ (<100 μl min^−1 mg^−1)	++ (<100 μl min^−1 mg^−1)
CCC(CC)n1cc(C(=O)NCc2ccccc2S(=O)(=O)N2CCOCC2)c2cc(OC)c(OC)cc2c1=O [Example 202, 2-(1-Ethyl-propyl)-6,7-dimethoxy-1-oxo-1,2-dihydro-isoquinoline-4-carboxylic acid 2-(morpholine-4-sulfonyl)-benzylamide]					< 100	+ (100-220 μl min^−1 mg^−1)	∘ (>220 μl min^−1 mg^−1)
CCn1cc(C(=O)NCc2csc(C)n2)c2cc(OC)c(OC)cc2c1=O [Example 316, 2-Ethyl-6,7-dimethoxy-N-[(2-methylthiazol-4-yl)methyl]-1-oxo-isoquinoline-4-carboxamide]					200 to 500	++ (<100 μl min^−1 mg^−1)	++ (<100 μl min^−1 mg^−1)
CCC(CC)n1cc(C(=O)NCC2CCCCC2)c2cc(OC)c(OC)cc2c1=O [Example 190, 2-(1-Ethyl-propyl)-6,7-dimethoxy-1-oxo-1,2-dihydro-isoquinoline-4-carboxylic acid cyclohexylmethyl-amide]					100 to 200	+ (100-220 μl min^−1 mg^−1)	∘ (>220 μl min^−1 mg^−1)
